Assay results published in article PMC2962730 (Journal of neurochemistry, 2010).
Substitutions are numbered along the chain they refer to.

Key:
[1] = target: T1, hVAChT Y60W (Homo sapiens, UniProt Q16572, Y60W); experiment: [3H]vesamicol saturation binding; settings: pH 7.4
T1 sequence (Q16572 1-532 Y60W): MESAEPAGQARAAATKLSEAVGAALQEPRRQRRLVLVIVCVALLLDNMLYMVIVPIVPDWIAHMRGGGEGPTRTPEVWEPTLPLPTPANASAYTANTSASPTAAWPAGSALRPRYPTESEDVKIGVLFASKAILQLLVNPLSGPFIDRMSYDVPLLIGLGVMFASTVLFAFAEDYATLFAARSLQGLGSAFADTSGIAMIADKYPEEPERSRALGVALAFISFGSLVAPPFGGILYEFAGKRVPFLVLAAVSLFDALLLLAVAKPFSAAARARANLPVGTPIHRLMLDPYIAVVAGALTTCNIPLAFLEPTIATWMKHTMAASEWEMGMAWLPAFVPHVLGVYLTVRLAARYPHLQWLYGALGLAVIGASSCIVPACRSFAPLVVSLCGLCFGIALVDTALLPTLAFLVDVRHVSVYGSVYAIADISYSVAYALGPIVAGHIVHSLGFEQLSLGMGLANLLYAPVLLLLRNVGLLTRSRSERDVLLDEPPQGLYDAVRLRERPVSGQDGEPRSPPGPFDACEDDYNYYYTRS

[2] = target: T2, hVAChT W331A (Homo sapiens, UniProt Q16572, W331A); experiment: ACh equilibrium binding by competition against [3H]vesamicol
T2 sequence (Q16572 1-532 W331A): T1 sequence (Q16572 1-532 Y60W) with W60Y, W331A

[3] = target: T3, hVAChT K317A (Homo sapiens, UniProt Q16572, K317A); experiment: as above
T3 sequence (Q16572 1-532 K317A): T1 sequence (Q16572 1-532 Y60W) with W60Y, K317A

[4] = target: T4, hVAChT Y60H (Homo sapiens, UniProt Q16572, Y60H); experiment: as above
T4 sequence (Q16572 1-532 Y60H): T1 sequence (Q16572 1-532 Y60W) with W60H

[5] = target: T5, hVAChT Y60A (Homo sapiens, UniProt Q16572, Y60A); experiment: [3H]ACh transport; type: biochemical
T5 sequence (Q16572 1-532 Y60A): T1 sequence (Q16572 1-532 Y60W) with W60A

Row | SMILES | Bmax, maximal specific [3H]vesamicol binding (VAChT expression level) [1] [pmol/mg] | ACh bound more weakly than by wild-type ([2]; W331A hVAChT vs wild-type) [fold] | FHA, fraction of the ACh sites that have high affinity ([2]; W331A hVAChT, pH 7.4, monophasic fit, FHA fixed to 1) | Kd [3] [mM] | FHA, fraction of the ACh sites that have high affinity ([3]; K317A hVAChT, pH 7.4) | Kd [4] [mM] | FHA, fraction of the ACh sites that have high affinity ([4]; Y60H hVAChT, pH 7.4) | Vmax/Bmax, ACh transport normalized to Bmax ([5]; pH 7.4) [min⁻¹] | Km ([5]; read-out: KM, Michaelis-Menten constant for ACh transport, pH 7.4) [µM]
1 | O[C@@H]1CCCC[C@H]1N1CCC(c2ccccc2)CC1 (racemic) [vesamicol, ( )-trans-2-(4-phenylpiperidino)cyclohexanol] | 34 ± 3 |  |  |  |  |  |  |  | 
2 | CC(=O)OCC[N+](C)(C)C [ACh, acetylcholine] |  | 11 | 1.0 | 6.9 ± 1.2 | 0.72 ± 0.06 | 11 | 0.82 ± 0.04 | 4.7 ± 0.8 | 480 ± 320
